From patent US8686115B2, “Compositions and methods for quantitatively monitoring lipids” (The Board of Trustees of the University of Illinois, priority 2009, dated 2014) come the findings set out here.

Assay [1] has as its system PtdIns(4,5)P2 in the plasma membrane. Briefly: Effect of ionomycin on plasma membrane PtdIns(4,5)P2 in cells microinjected with DAN-eENTH. The assay is classed as cell-based. Particulars: majority of DAN-eENTH released to the cytosol. The method, then: [DAN-eENTH] was adjusted to give strong enough FB and FG signals for robust data analysis. […] Also, when [PtdIns(4,5)P2] in the plasma membrane was lowered by ionomycin treatment, a majority of DAN-eENTH was released to the cytosol.
NIH 3T3 cells were seeded into 8-well plates and grown at 37° C. in a humidified atmosphere of 95% air and 5% CO2 in Dulbecco's modified Eagle's medium (DMEM) (Invitrogen) supplemented with 10% (v/v) fatal bovine serum (Invitrogen). DAN-eENTH was delivered into the cells by microinjection using the Eppendorf InjectMan NI 2 system. All microscopy measurements and data analysis were performed as described above. For cell measurements, the minimal FB value was taken from the cytosol where PtdIns(4,5)P2 is absent and (FB)max was taken after the excess amount of exogenous PtdIns(4,5)P2 was delivered to the cell by either microinjection or as vesicle formulation. […] Thus, the cellular [PtdIns(4,5)P2] was determined from the observed (FB/FG) values using the in vitro calibration curve determined using POPC/POPS/PtdIns(4,5)P2 GUVs.

In assay [2] the target is T1, DAN-eENTH: epsin 1 ENTH domain variant M10C/C96A/S4W, SEQ ID NO: 2, labeled with DAN at C10 (Homo sapiens, UniProt Q9Y6I3, C96A/M10C/S4W).
T1 construct: The Epsin1 ENTH domain (1-158 amino acids) was subcloned; GST (C, cleaved yes); made in house; host or cells: E. coli BL21 RIL codon plus
T1 sequence (Q9Y6I3 1-158 S4W/M10C/C96A): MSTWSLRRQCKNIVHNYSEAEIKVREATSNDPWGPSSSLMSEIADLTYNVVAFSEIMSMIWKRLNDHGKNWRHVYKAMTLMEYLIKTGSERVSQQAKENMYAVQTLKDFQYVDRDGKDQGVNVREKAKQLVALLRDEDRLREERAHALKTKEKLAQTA
Nature of the assay: SPR: effect of IP3 on DAN-eENTH binding to PtdIns(4,5)P2-containing vesicles. To be noted: 5 μM IP3; 50 nM DAN-eENTH; POPC/POPS/PtdIns(4,5)P2 (77:20:3) LUVs; 5 min incubation; pH 7.4. The method, then:
(§1) With respect to FIG. 1, an L1 sensor chip was coated with POPC/POPS/PtdIns(4,5)P2 (77:20:3) LUVs. The proteins were incubated with a given concentration of IP3 for 5 minutes before injecting into the SPR instrument. Kinetic SPR measurements were performed in 20 mM Tris-HCL, pH 7.4, containing 0.16 KCl. […] A lower concentration of DAN-eENTH was used than that of PLCδ PH because the former has much higher affinity that the latter.
Background: SPR reads the build-up and loss of mass on a sensor chip optically.

The subject of assay [3] is PLCδ PH domain. Briefly: SPR: inhibition by IP3 of PLCδ PH domain binding to PtdIns(4,5)P2-containing vesicles. Particulars: 5 μM IP3; 250 nM PLCδ PH domain; POPC/POPS/PtdIns(4,5)P2 (77:20:3) LUVs; 5 min incubation; pH 7.4. As to the method: as §1
Assay [4] can be described thus: SPR analysis of lipid selectivity of Lact-C2 and mutant. The format is binding. To be noted: FIG. 12(a), 12(b). The text has this: The Lact-C2 domain was converted into a PA-specific protein through protein engineering based on the crystal structure of Lact-C2 (J. Biol. Chem., (283)7230-7241 (2008)) and our molecular insight into PA and PS binding proteins. In the crystal structure, D80, H83, and Q85 interact with the serine head group of PS, so we mutated them to R, E, and K, respectively, to abrogate PS binding. Since PA has higher negative charge density without the head group, a mutant without PS binding may still interact with PA with high affinity. […] PA formation in NIH 3T3 cells in the presence of the phorbol ester, PMA, was successfully quantified.

Turning to `C[C@H](CCC(=O)O)C[C@H](C)C[C@H](C)C(=O)/C=C(\O)[C@H](C)C[C@H](C)C/C=C/[C@@H](C)[C@@H](O)[C@@H](C)[C@@H](O)C[C@@H]1CC[C@@](C)([C@H]2CC[C@@](C)([C@@H](C)O)O2)O1` [ionomycin], the “[PtdIns(4,5)P2] in the plasma membrane upon ionomycin treatment” value in assay [1] is “lowered”.
Take `O=P(O)(O)O[C@@H]1[C@H](O)[C@H](O)[C@@H](OP(=O)(O)O)[C@H](OP(=O)(O)O)[C@H]1O` [IP3, inositol-(1,4,5)-triphosphate]: in assay [2], the “effect on binding to PtdIns(4,5)P2-containing vesicles” value was “minimal effect”. For the same molecule, the “inhibition of binding to PtdIns(4,5)P2-containing vesicles” value in assay [3] is reported as > 70%.

B1: Lact-C2: C2 domain of bovine lactadherin, SEQ ID NO:3 (protein)
chain: CTEPLGLKDNTIPNKQITASSYYKTWGLSAFSWFPYYARLDNQGKFNAWTAQTNSASEWLQIDLGSQKRVTGIITQGARDFGHIQYVAAYRVAYGDDGVTWTEYKDPGASESKIFPGNMDNNSHKKNIFETPFQARFVRIQPVAWHNRITLRVELLGC
modifications: C2 domain of bovine lactadherin.
With B1, the “lipid selectivity by SPR” value in assay [4] is “PS-specific”.
